From patent US8835644B2, “Broad spectrum benzothiophene-nitrothiazolide and other antimicrobials” (University of Virginia Patent Foundation, priority 2009, dated 2014)
In brackets after ≈: the same amount, converted by molar mass. Counter-ions that a name gives are not always drawn. Like-named read-outs stand apart in the source and are kept apart here.

Legend:
H. pylori = test: MIC testing by broth dilution, H. pylori; format: cell-based, Helicobacter pylori; details: 24 h, read-out: MIC (μM) H. pylori
Procedure: (§1) A standard broth dilution protocol was used in 96 well microplates containing a standard dilution of the microorganism to be tested in 100 microliters of the appropriate medium. Appropriate medium: E. coli, LB medium; Staphylococcus strains, Trypticase Soy; and for H. pylori and C. jejuni, Brain Heart Infusion. The compounds to be tested were set at 32 μg/ml in 200 microliters in well one and then serially diluted to provide a range from 32 to 0.06. The wells were scored visually at 24 h. The well where there was no growth was recorded as the MIC. Clostridium difficile was tested by agar diffusion and disk diffusion (Kirby Bower) methods under anaerobic conditions on Wilkins Chalgrin agar. In these assays, zone of inhibited growth was measured and compared by relative ratio to the zone recorded for NTZ.
(§2) Representative compounds of the invention were tested in a series of assays against a series of organisms as described above. […] The organisms tested include, C. difficile, H. pylori, C. jejuni, MRSA, S. epidermidis, and E. coli. S. epidermidis and E. coli were tested in the plank and biofilm assay. A disk diffusion assay was also used for C. difficile. Direct PFOR enzyme assays were also performed. All analogues and derivatives were not tested on every organism in every type of assay (the “-” in each table means that it was not tested).

C. jejuni = test: MIC testing by broth dilution, C. jejuni; format: cell-based, Campylobacter jejuni; details: 24 h, read-out: MIC (μM) C. jejuni
Procedure: as §1, §2

MRSA = test: MIC testing by broth dilution, MRSA; format: cell-based, Staphylococcus aureus; details: 24 h, read-out: MIC (μM) MRSA
Procedure: as §1, §2

S. epidermidis = test: MIC testing by broth dilution, S. epidermidis plank; format: cell-based, Staphylococcus epidermidis; details: 24 h, read-out: MIC (μM) S. epidermidis Plank
Procedure: as §1, §2

E. coli = test: MIC testing by broth dilution, E. coli plank; format: cell-based, Escherichia coli; details: 24 h, read-out: MIC (μM) E. coli Plank
Procedure: as §1, §2

C. difficile = test: Disk diffusion (Kirby Bower), C. difficile; format: cell-based, Clostridium difficile; details: zone of inhibited growth as relative ratio to the zone for NTZ
Procedure: as §1, §2

[1] = broth dilution, Brain Heart Infusion

| SMILES | MIC (H. pylori; [1]) [µM] | MIC (C. jejuni; [1]) [µM] | MIC (MRSA; broth dilution, Trypticase Soy) [µM] | MIC (S. epidermidis; broth dilution, Trypticase Soy) [µM] | MIC (E. coli; broth dilution, LB medium) [µM] | MIC (H. pylori; Helicobacter pylori) [µM] | MIC (C. jejuni; Campylobacter jejuni) [µM] | MIC (MRSA; Staphylococcus aureus, MRSA) [µM] | MIC (S. epidermidis; Staphylococcus epidermidis) [µM] | MIC (E. coli; Escherichia coli) [µM] | Disk Diffusion (%) C. difficile (C. difficile) [%] |
| --- | --- | --- | --- | --- | --- | --- | --- | --- | --- | --- | --- |
| CC(C)(C)OC(=O)Nc1ccccc1C(=O)Nc1ncc([N+](=O)[O-])s1 [VPC162047, tert-Butyl 2-(5-nitrothiazol-2-ylcarbamoyl)phenylcarbamate] | – | – | – | – | – | 0.3 (≈ 0.109 µg/mL) | 27.4 (≈ 9.98 µg/mL) | 5.5 (≈ 2 µg/mL) | 5.5 (≈ 2 µg/mL) | 87.8 (≈ 32 µg/mL) | 83 |
| Nc1ccccc1C(=O)Nc1ncc([N+](=O)[O-])s1 [VPC162055] | 2.4 (≈ 0.634 µg/mL) | 11.4 (≈ 3.01 µg/mL) | 121.1 (≈ 32 µg/mL) | 90.8 (≈ 24 µg/mL) | 45.4 (≈ 12 µg/mL) | – | – | – | – | – | 83 |
| CC(C)(C)OC(=O)N1CCC(C(=O)NCCOc2ccccc2C(=O)Nc2ncc([N+](=O)[O-])s2)CC1 [VPC162059] | 0.7 (≈ 0.364 µg/mL) | 61.6 (≈ 32 µg/mL) | 61.6 (≈ 32 µg/mL) | 61.6 (≈ 32 µg/mL) | 61.6 (≈ 32 µg/mL) | – | – | – | – | – | 38 |
| O=C(COc1ccccc1C(=O)Nc1ncc([N+](=O)[O-])s1)NCCN1CCOCC1 [VPC162065] | 2.3 (≈ 1 µg/mL) | 36.7 (≈ 16 µg/mL) | 73.5 (≈ 32 µg/mL) | 27.6 (≈ 12 µg/mL) | 73.5 (≈ 32 µg/mL) | – | – | – | – | – | – |
| Cl.O=C(Nc1ncc([N+](=O)[O-])s1)c1ccccc1OCCNC(=O)C1CCNCC1 [VPC162068] | 52.6 | 35.1 | 70.2 | 70.2 | 70.2 | – | – | – | – | – | – |
| NCCOC(=O)COc1ccccc1C(=O)Nc1ncc([N+](=O)[O-])s1 [VPC162082, 2-Aminoethyl 2-(2-(5-nitrothiazol-2-ylcarbamoyl)phenoxy)acetate hydrochloride] | – | – | – | – | – | 6.2 | 29.8 | 79.4 | 79.4 | 79.4 | – |
| Cl.O=C(COc1ccccc1C(=O)Nc1ncc([N+](=O)[O-])s1)OC1CNC1 [VPC162083] | 24.1 | 77.1 | 77.1 | 77.1 | 77.1 | – | – | – | – | – | – |

Further lines, with some results ahead:

| MIC (H. pylori; [1]) [µM] | MIC (C. jejuni; [1]) [µM] | MIC (MRSA; broth dilution, Trypticase Soy) [µM] | MIC (S. epidermidis; broth dilution, Trypticase Soy) [µM] | MIC (E. coli; broth dilution, LB medium) [µM] | SMILES | MIC (H. pylori; Helicobacter pylori) [µM] | MIC (C. jejuni; Campylobacter jejuni) [µM] | MIC (MRSA; Staphylococcus aureus, MRSA) [µM] | MIC (S. epidermidis; Staphylococcus epidermidis) [µM] | MIC (E. coli; Escherichia coli) [µM] | Disk Diffusion (%) C. difficile (C. difficile) [%] |
| --- | --- | --- | --- | --- | --- | --- | --- | --- | --- | --- | --- |
| 6.9 (≈ 2.11 µg/mL) | 41.6 (≈ 12.7 µg/mL) | 55.5 (≈ 17 µg/mL) | 111.0 (≈ 34 µg/mL) | 111.0 (≈ 34 µg/mL) | CC(=O)Nc1ccccc1C(=O)Nc1ncc([N+](=O)[O-])s1 [VPC162046b] | – | – | – | – | – | – |
| 0.4 (≈ 0.171 µg/mL) | 74.9 (≈ 32 µg/mL) | 74.9 (≈ 32 µg/mL) | 74.9 (≈ 32 µg/mL) | 74.9 (≈ 32 µg/mL) | O=C(NCCOc1ccccc1C(=O)Nc1ncc([N+](=O)[O-])s1)Nc1ccccc1 [VPC162048] | – | – | – | – | – | 31 |
| 1.5 (≈ 0.505 µg/mL) | 17.8 (≈ 5.99 µg/mL) | 95.1 (≈ 32 µg/mL) | 95.1 (≈ 32 µg/mL) | 95.1 (≈ 32 µg/mL) | CN(C)CCOc1ccccc1C(=O)Nc1ncc([N+](=O)[O-])s1 [VPC162052] | – | – | – | – | – | – |
| 0.9 (≈ 0.359 µg/mL) | 80.3 (≈ 32 µg/mL) | 80.3 (≈ 32 µg/mL) | 80.3 (≈ 32 µg/mL) | 80.3 (≈ 32 µg/mL) | O=C(COc1ccccc1C(=O)Nc1ncc([N+](=O)[O-])s1)Nc1ccccc1 [VPC162056] | – | – | – | – | – | – |
| 1.9 (≈ 0.772 µg/mL) | 78.7 (≈ 32 µg/mL) | 78.7 (≈ 32 µg/mL) | 4.9 (≈ 1.99 µg/mL) | 78.7 (≈ 32 µg/mL) | CCCCCCNC(=O)COc1ccccc1C(=O)Nc1ncc([N+](=O)[O-])s1 [VPC162064] | – | – | – | – | – | – |
| 2.0 | 5.4 | 85.8 | 42.9 | 85.8 | Cl.NCCCCOc1ccccc1C(=O)Nc1ncc([N+](=O)[O-])s1 [VPC162096HCl] | – | – | – | – | – | 111 |
